{
  "source": "paper PMC8880564",
  "about": "“Design, Synthesis, and Biological Evaluation of a Novel VEGFR-2 Inhibitor Based on a 1,2,5-Oxadiazole-2-Oxide Scaffold with MAPK Signaling Pathway Inhibition” (Pharmaceuticals, 2022)",
  "key": {"[1]": {"test_system": "Bax", "assay": "Quantitative RT-PCR for gene expression in HepG2 cells", "format": "cell-based, human", "conditions": "HepG2, 12 h", "from_the_text": "(§1) Epithelial cells express specific genes involved in maintaining apical–basal polarity and adherence, such as epithelial E-cadherin. The epithelial cells migrate to distant locations by over-expressing mesenchymal genes, including neuronal N-cadherin and vimentin [58]. Cancer aggressiveness has been positively correlated with the over-expression of N-cadherin. Therefore, in this study, the partial mechanism of activity of 12b was investigated, by quantitative RT-PCR, with respect to E-cadherin and N-cadherin. […] Additionally, the ability of 12b was confirmed by detecting the change in expression of both pro-apoptotic (Bax) and anti-apoptotic (BCL-2) genes. Compound 12b-treated HepG2 cells (for 12 h) expressed a low level of BCL-2 and over-expressed Bax (Figure 11A).\n(§2) HepG2 cells were treated either with DMSO, 5.5 or 11 µM of 12b for 12 h, and then the total RNA was extracted by TRIzol™ Reagent (Invitrogen, Cat. No. 15596018). The RNA concentration and purity were evaluated using a Thermo Scientific™ NanoDrop™ One Microvolume UV-Vis Spectrophotometer. Four µg RNA was reverse transcribed to cDNA using the RevertAid First Strand cDNA Synthesis kit. The level of N-cadherin, E-cadherin, BCL-2, Bax, and GAPDH was detected using the SensiFAST™ SYBR® High-ROX Kit with the StepOne™ Real-Time PCR System (Applied Biosystems™). The expression level was firstly normalized to the level of GAPDH, then calculated as 2^−(ΔΔCt), where ΔCt 12b = (Ct […] Ct GAPDH); ΔCt DMSO = (Ct DMSO ™ Ct GAPDH); ΔΔCt = (ΔCt 12b ™ ΔCt DMSO). Ct is the cycle threshold."}, "[2]": {"test_system": "N-cadherin", "assay": "Quantitative RT-PCR for gene expression in HepG2 cells", "format": "cell-based, human", "conditions": "HepG2, 5.5 or 11 µM, 12 h", "from_the_text": "as §1, §2"}, "[3]": {"test_system": "BCL-2", "assay": "Quantitative RT-PCR for gene expression in HepG2 cells", "format": "cell-based, human", "conditions": "HepG2, 12 h", "from_the_text": "as §1, §2"}, "[4]": {"test_system": "E-cadherin", "assay": "Quantitative RT-PCR for gene expression in HepG2 cells", "format": "cell-based, human", "conditions": "HepG2, 5.5 or 11 µM, 12 h", "from_the_text": "as §1, §2"}, "[5]": {"test_system": "HepG2 cells", "assay": "Wound-healing assay", "format": "cell-based, human", "conditions": "HepG2, serum-free media, 24 h, vs DMSO-treated cells", "protocol": "A wound-healing assay is a simple and economical assay used to investigate the anti-metastatic activity of compounds. Cells were treated with compound 12b in serum-free media for 24 h. After that, the cells were fixed with ice-cold methanol and air-dried, then stained with 0.5% crystal violet."}, "[6]": {"test_system": "MKK3", "assay": "ELISA assay in HepG-2 cells", "format": "cell-based, human", "conditions": "HepG-2, 11 µM", "protocol": "(§3) The mitogen-activated protein kinase (MAPK) pathway is considered to be a key player in the gene expression of survival, proliferative, and anti-apoptotic proteins. Aberrant dysregulation in the MAPK pathway activity has been linked to the overall poor prognosis in various cancers. […] Additionally, compound 12b was further tested against p38, MKK3, and JNK using ELISA assay protocols at a concentration of 11 µM. […] The overexpression of JNK might have contributed to the NO released from 12b and reactive oxygen species (ROS). In summary, the novel anticancer lead compound 12b is worthy of further investigation and activity improvement.\n(§4) The p38, MKK3, and JNK assays were performed according to the manufacturer’s ELISA assay protocols. Briefly, a 96-well plate was seeded with a cell density of 10,000–40,000 cells/well. Then, 50 µL of compound 12b or control (DMSO) was added to appropriate wells in triplicate. Following this, 50 µL of the antibody cocktail (in case of p38; Cat. No. ab221012, Abcam (Waltham, MA, USA) and MKK3; Cat. No. PEL-MKK3-S189-T, RayBiotech, Peachtree Corners, GA, USA) was added to each well. The plate was then sealed and incubated for 1–2.5 h at room temperature with gentle shaking. Each well was washed with 1X Wash Buffer PT (4 × 350 µL), and then the plate was inverted and tapped gently against clean paper towels to remove excess liquid. In case of JNK (Cat. No. ab176662, Abcam, Waltham, MA, USA), this washing step was applied before and after adding 1X rabbit […] antibody, then 100 µL of HRP-conjugated anti-rabbit IgG solution was added and the plate was incubated for 1 h at room temperature with gentle shaking followed by washing (4 × 350 µL). After that, 100 µL of TMB Substrate was added to each well and incubated for 15–30 min in the dark with gentle shaking. Finally, 100 µL of Stop Solution was added to each well and the plate was shaken for 1 min to mix well. The OD was recorded at 450 nm."}, "[7]": {"test_system": "JNK", "assay": "ELISA assay in HepG-2 cells", "format": "cell-based, human", "conditions": "HepG-2, 11 µM", "protocol": "as §3, §4"}, "[8]": {"test_system": "p38", "assay": "ELISA assay in HepG-2 cells", "format": "cell-based, human", "conditions": "HepG-2, 11 µM", "protocol": "as §3, §4"}, "[9]": {"target": "VEGFR-2 (Homo sapiens, UniProt P35968)", "sequence (P35968 789-1356 limits assumed)": "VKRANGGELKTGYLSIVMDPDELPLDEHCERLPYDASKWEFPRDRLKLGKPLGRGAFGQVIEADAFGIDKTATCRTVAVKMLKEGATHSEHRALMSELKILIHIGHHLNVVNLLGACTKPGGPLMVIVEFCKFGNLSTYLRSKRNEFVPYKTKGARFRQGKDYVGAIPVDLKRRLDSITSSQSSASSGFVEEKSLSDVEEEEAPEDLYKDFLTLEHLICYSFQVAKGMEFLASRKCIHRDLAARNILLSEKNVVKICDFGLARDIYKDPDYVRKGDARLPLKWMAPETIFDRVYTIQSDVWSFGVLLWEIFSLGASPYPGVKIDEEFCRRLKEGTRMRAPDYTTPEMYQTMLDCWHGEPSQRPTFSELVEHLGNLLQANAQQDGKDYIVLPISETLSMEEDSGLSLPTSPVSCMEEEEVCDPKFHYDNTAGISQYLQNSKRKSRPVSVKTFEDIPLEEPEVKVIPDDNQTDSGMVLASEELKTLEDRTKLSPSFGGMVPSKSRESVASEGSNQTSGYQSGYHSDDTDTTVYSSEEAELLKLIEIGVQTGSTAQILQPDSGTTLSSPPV", "assay": "VEGFRx kinase assay (BPS Bioscience kit)", "conditions": "VEGFR-2 inhibitory activity IC50, duplicate, luminescence kinase kit", "experimental": "The kinase assay was performed according to BPS Bioscience® kinase assay kit protocols [17, 74, 75, 76, 77]. […] The master mixture (25 μL) was added to every well then inhibitor solution of each well, labeled as “Test Inhibitor”, was added. For the “Positive Control” and “Blank”, the same solution without inhibitor (Inhibitor buffer) was added. To the wells designated as “Blank”, 1x Kinase Buffer 1 was added. FLT1/VEGFR2/FLT3 enzyme was thawed on ice and diluted with 1x Kinase Buffer 1 then added to the wells designated “Positive Control” and “Test Inhibitor Control”. The plate was incubated at 30 °C for 45 min then ADP-Glo reagent/Kinase-Glo Max reagent was added to each well. The plate was covered with aluminum foil and incubated at room temperature for 15 min. The luminescence was measured using the microplate reader. In case of FLT1 and FLT3, the plate was incubated for 45 min, then Kinase Detection reagent was added to each well and the plate was covered with aluminum foil and incubated at room temperature for another 45 min. The luminescence was measured immediately using the Tecan–spark® reader. A “Blank” value was subtracted from all readings."}, "[10]": {"test_system": "normal human skin fibroblast cells (HSF)", "assay": "Selectivity towards cancer cells, normal cells by MTT", "format": "cell-based", "conditions": "at a concentration as high as 50 µM, 48 h", "protocol": "Furthermore, the selectivity index (SI) of compound 12b towards the various cancer cell lines was evaluated by detecting the required concentration to kill 50% of normal human skin fibroblast cells (HSF).\nAccording to the procedures of Bézivin et al. (with minor modifications), the selectivity of compound 12b against cancer cell lines was evaluated by seeding human skin fibroblast cells (HSF) at 5 × 10^4 cells/mL in a 96-well plate and incubating them overnight at 37 °C and 5% CO2. On the second day, serial dilution of the compound 12b was added. After 48 h of incubation, the viability of HSF cells was determined by MTT assay as mentioned above and the selectivity index (SI) was calculated according to Equation (1):\nEquation (1) Calculation of selectivity index. (1) SI=IC50 normal cells/IC50 cancer cell"}},
  "note": "Where “and” joins values, the source holds several entries; their conditions need not be identical. Identical values can stand only once.",
  "data": [
    {"smiles": "[O-][n+]1onc(-c2ccccc2)c1CNc1ccc(Nc2nc(C(F)(F)F)nc3c2cnn3-c2ccc(Br)cc2)cc1", "note": "[12b, 3-(((4-((1-(4-bromophenyl)-6-(trifluoromethyl)-1H-pyrazolo[3,4-d]pyrimidin-4-yl)amino)phenyl)amino)methyl)-4-phenyl-1,2,5-oxadiazole 2-oxide]", "values": [
      {"measurement": "expression of Bax", "setting": "[1]", "value": "over-expressed"},
      {"measurement": "expression of neuronal N-cadherin", "setting": "[2]", "value": "lower expression"},
      {"measurement": "expression of BCL-2", "setting": "[3]", "value": "low level"},
      {"measurement": "expression of epithelial E-cadherin", "setting": "[4]", "value": "increased expression"},
      {"measurement": "rate of wound healing", "setting": "[5]", "value": "decreased the rate of wound healing"},
      {"measurement": "relative expression of MKK3", "setting": "[6]", "value": "low expression"},
      {"measurement": "relative expression of JNK", "setting": "[7]", "value": "overexpressed"},
      {"measurement": "relative expression of p38", "setting": "[8]", "value": "low expression"},
      {"measurement": "IC50", "setting": "[9]", "value": "92 nM and 90 nM"},
      {"measurement": "morphological changes in HSF cells", "setting": "[10]", "value": "did not cause any morphological changes"}
    ]}
  ]
}
